What was measured:
IRAK4 [1] = target: T1, IRAK4 (Homo sapiens (Human), UniProt Q9NWZ3); assay: IRAK4 Biochemical HTRF Kinase Assay; conditions: Table 5; multiple runs; read-out: IRAK4 HTRF biochemical: IC50
Method in brief: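 HTRF KinEASE STK S1 format measuring IRAK4 phosphorylation of biotinylated peptide; reaction solution of 5 μM STK-S1, 10 mM ATP, 10 mM MgCl2 added (stock, to 10 μl final), 90 min at ambient temperature, detection 60 min. IC50 from sixteen-point duplicate curves by non-linear regression.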
Target sequence in this assay (Q9NWZ3 whole entry, species assumed): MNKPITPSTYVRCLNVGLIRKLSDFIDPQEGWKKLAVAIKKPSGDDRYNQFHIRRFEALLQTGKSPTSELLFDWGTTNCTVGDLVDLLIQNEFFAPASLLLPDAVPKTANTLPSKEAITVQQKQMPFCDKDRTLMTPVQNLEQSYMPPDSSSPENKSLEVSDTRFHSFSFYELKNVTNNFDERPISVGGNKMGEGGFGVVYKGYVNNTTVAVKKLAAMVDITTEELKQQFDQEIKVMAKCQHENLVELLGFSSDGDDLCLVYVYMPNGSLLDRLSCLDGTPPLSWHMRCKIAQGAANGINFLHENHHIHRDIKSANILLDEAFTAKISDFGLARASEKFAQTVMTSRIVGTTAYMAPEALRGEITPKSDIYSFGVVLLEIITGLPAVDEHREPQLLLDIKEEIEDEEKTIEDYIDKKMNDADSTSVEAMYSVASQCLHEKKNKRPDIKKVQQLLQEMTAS

IRAK4 [2] = target: T1, IRAK4; assay: IRAK4 Degradation HiBiT Assay; conditions: multiple runs, HiBiT-tagged Jurkat cells, 4 hrs; for Dmax: Jurkat, read-out: Cellular IRAK4 HiBiT: Dmax, Table 5; for DC50: read-out: Cellular IRAK4 HiBiT: DC50, Table 5
Target sequence in this assay (Q9NWZ3 whole entry): as the sequence (Q9NWZ3 whole entry, species assumed) above

SMILES	IC50 (IRAK4 [1]) [nM]	Dmax (IRAK4 [2]) [%]	DC50 (IRAK4 [2]) [nM]
CNc1cc(-c2ccc3cc(C#N)cnn23)ncc1-c1nnc(N2CC3(CCN(C[C@@H]4CCN(c5ccc6c(c5)C(=O)N(C5CCC(=O)NC5=O)C6=O)C4)CC3)C2)s1 (stereo partly drawn) [Example 181, 7-(5-(5-(7-(((3S)-1-(2-(2,6-dioxopiperidin-3-yl)-1,3-dioxoisoindolin-5-yl)pyrrolidin-3-yl)methyl)-2,7-diazaspiro[3.5]nonan-2-yl)-1,3,4-thiadiazol-2-yl)-4-(methylamino)pyridin-2-yl)pyrrolo[1,2-b]pyridazine-3-carbonitrile]	0.6	41	6.94
CNc1cc(-c2ccc3cc(C#N)cnn23)ncc1-c1nnc(N2CC3(CCN(CC4CCN(c5ccc(C(=O)NC6CCC(=O)NC6=O)cc5)CC4)CC3)C2)s1 (stereo not drawn) [Example 182, 4-(4-((2-(5-(6-(3-cyanopyrrolo[1,2-b]pyridazin-7-yl)-4-(methylamino)pyridin-3-yl)-1,3,4-thiadiazol-2-yl)-2,7-diazaspiro[3.5]nonan-7-yl)methyl)piperidin-1-yl)-N-(2,6-dioxopiperidin-3-yl)benzamide]	0.5	120	159
CNc1cc(-c2ccc3cc(C#N)cnn23)ncc1-c1nnc(N2CCC(C3CCN(C(=O)c4ccc5c(c4)C(=O)N(C4CCC(=O)NC4=O)C5=O)CC3)CC2)s1 (stereo not drawn) [Example 184, 7-(5-(5-(1′-(2-(2,6-dioxopiperidin-3-yl)-1,3-dioxoisoindoline-5-carbonyl)-[4,4′-bipiperidin]-1-yl)-1,3,4-thiadiazol-2-yl)-4-(methylamino)pyridin-2-yl)pyrrolo[1,2-b]pyridazine-3-carbonitrile]	0.9	96	71.4
CNc1cc(-c2ccc3cc(C#N)cnn23)ncc1-c1nnc(N2CCC(C3CCN(C(=O)CN4CCN(c5ccc6c(c5)C(=O)N(C5CCC(=O)NC5=O)C6=O)CC4)CC3)CC2)s1 (stereo not drawn) [Example 185, 7-(5-(5-(1′-(2-(4-(2-(2,6-dioxopiperidin-3-yl)-1,3-dioxoisoindolin-5-yl)piperazin-1-yl)acetyl)-[4,4′-bipiperidin]-1-yl)-1,3,4-thiadiazol-2-yl)-4-(methylamino)pyridin-2-yl)pyrrolo[1,2-b]pyridazine-3-carbonitrile]	1.5	89	126
CNc1cc(-c2ccc3cc(C#N)cnn23)ncc1-c1nnc(N2CCC(N3CCN(C(=O)c4ccc5c(c4)C(=O)N(C4CCC(=O)NC4=O)C5=O)CC3)CC2)s1 (stereo not drawn) [Example 186, 7-(5-(5-(4-(4-(2-(2,6-dioxopiperidin-3-yl)-1,3-dioxoisoindoline-5-carbonyl)piperazin-1-yl)piperidin-1-yl)-1,3,4-thiadiazol-2-yl)-4-(methylamino)pyridin-2-yl)pyrrolo[1,2-b]pyridazine-3-carbonitrile]	0.3	96	17.1
CNc1cc(-c2ccc3cc(C#N)cnn23)ncc1-c1nnc(N2CCN(CCC3CCN(c4ccc5c(c4)C(=O)N(C4CCC(=O)NC4=O)C5=O)CC3)CC2)s1 (stereo not drawn) [Example 187, 7-(5-(5-(4-(2-(1-(2-(2,6-dioxopiperidin-3-yl)-1,3-dioxoisoindolin-5-yl)piperidin-4-yl)ethyl)piperazin-1-yl)-1,3,4-thiadiazol-2-yl)-4-(methylamino)pyridin-2-yl)pyrrolo[1,2-b]pyridazine-3-carbonitrile]	0.9	95	88.3

Other lines, results leading:

IC50 (IRAK4 [1]) [nM]	Dmax (IRAK4 [2]) [%]	DC50 (IRAK4 [2]) [nM]	SMILES
2.3	111	222	CNc1cc(-c2ccc3cc(C#N)cnn23)ncc1-c1nnc([C@H]2C[C@H](NC(=O)C[C@H](NC(=O)[C@@H]3C[C@@H](O)CN3C(=O)[C@@H](NC(=O)C3(F)CC3)C(C)(C)C)c3ccc(-c4scnc4C)cc3)C2)s1 [Example 183, (2S,4R)—N—((S)-3-(((1r,3S)-3-(5-(6-(3-cyanopyrrolo[1,2-b]pyridazin-7-yl)-4-(methylamino)pyridin-3-yl)-1,3,4-thiadiazol-2-yl)cyclobutyl)amino)-1-(4-(4-methylthiazol-5-yl)phenyl)-3-oxopropyl)-1-((S)-2-(1-fluorocyclopropane-1-carboxamido)-3,3-dimethylbutanoyl)-4-hydroxypyrrolidine-2-carboxamide]
0.5	108	16	CNc1cc(-c2ccc3cc(C#N)cnn23)ncc1-c1nnc([C@H]2CC[C@H](N(C)C(=O)CCN3CCN(c4ccc5c(c4)C(=O)N(C4CCC(=O)NC4=O)C5=O)CC3)CC2)s1 (stereo partly drawn) [Example 188, N-((1r,4r)-4-(5-(6-(3-cyanopyrrolo[1,2-b]pyridazin-7-yl)-4-(methylamino)pyridin-3-yl)-1,3,4-thiadiazol-2-yl)cyclohexyl)-3-(4-(2-(2,6-dioxopiperidin-3-yl)-1,3-dioxoisoindolin-5-yl)piperazin-1-yl)-N-methylpropanamide]
0.3	62	192	CNc1cc(-c2ccc3cc(C#N)cnn23)ncc1-c1nnc([C@H]2CC[C@H](N(C)CC3CCN(c4ccc(C(=O)N(C)C5CCC(=O)NC5=O)cc4)CC3)CC2)s1 (stereo partly drawn) [Example 189, 4-(4-((((1r,4r)-4-(5-(6-(3-cyanopyrrolo[1,2-b]pyridazin-7-yl)-4-(methylamino)pyridin-3-yl)-1,3,4-thiadiazol-2-yl)cyclohexyl)(methyl)amino)methyl)piperidin-1-yl)-N-(2,6-dioxopiperidin-3-yl)-N-methylbenzamide]
1	105	7.75	CNc1cc(-c2ccc3cc(C#N)cnn23)ncc1-c1nnc([C@H]2C[C@H](NC(=O)CN3CCN(c4ccc5c(c4)C(=O)N(C4CCC(=O)NC4=O)C5=O)CC3)C2)s1 (stereo partly drawn) [Example 190, N-((1r,3r)-3-(5-(6-(3-cyanopyrrolo[1,2-b]pyridazin-7-yl)-4-(methylamino)pyridin-3-yl)-1,3,4-thiadiazol-2-yl)cyclobutyl)-2-(4-(2-(2,6-dioxopiperidin-3-yl)-1,3-dioxoisoindolin-5-yl)piperazin-1-yl)acetamide]
1.5	110	48.2	CNc1cc(-c2ccc3cc(C#N)cnn23)ncc1-c1nnc([C@H]2CC[C@H](N(C)C(=O)C[C@H](NC(=O)[C@@H]3C[C@@H](O)CN3C(=O)C(c3cc(C)no3)C(C)C)c3ccc(-c4scnc4C)cc3)CC2)s1 (stereo partly drawn) [Example 191, (2S,4R)—N—((S)-3-(((1r,4S)-4-(5-(6-(3-cyanopyrrolo[1,2-b]pyridazin-7-yl)-4-(methylamino)pyridin-3-yl)-1,3,4-thiadiazol-2-yl)cyclohexyl)(methyl)amino)-1-(4-(4-methylthiazol-5-yl)phenyl)-3-oxopropyl)-4-hydroxy-1-(3-methyl-2-(3-methylisoxazol-5-yl)butanoyl)pyrrolidine-2-carboxamide]
1.4	103	50.6	CCN(C(=O)C[C@H](NC(=O)[C@@H]1C[C@@H](O)CN1C(=O)C(c1cc(C)no1)C(C)C)c1ccc(-c2scnc2C)cc1)[C@H]1CC[C@H](c2nnc(-c3cnc(-c4ccc5cc(C#N)cnn45)cc3NC)s2)CC1 (stereo partly drawn) [Example 192, (2S,4R)—N—((S)-3-(((1r,4S)-4-(5-(6-(3-cyanopyrrolo[1,2-b]pyridazin-7-yl)-4-(methylamino)pyridin-3-yl)-1,3,4-thiadiazol-2-yl)cyclohexyl)(ethyl)amino)-1-(4-(4-methylthiazol-5-yl)phenyl)-3-oxopropyl)-4-hydroxy-1-(3-methyl-2-(3-methylisoxazol-5-yl)butanoyl)pyrrolidine-2-carboxamide]
